Consider one compound from paper PMC8518537, “N‐(Anilinoethyl)amide Melatonergic Ligands with Improved Water Solubility and Metabolic Stability” (Chemmedchem, 2021).

One data set deals with human MT1 receptors (Homo sapiens, UniProt P48039). The experiment in a line: Radioligand binding, 2-[125I]iodomelatonin competition at MT1. The settings on record: cloned human MT1 in CHO cells; from IC50 by Cheng-Prusoff; mean±SD of three determinations; read-out: MT1 K i.
Data set [1] is described as follows: Metabolic stability in human liver microsomes. The class given is in vitro ADME. The settings on record: human liver microsomes 1 mg protein/mL, 5 μM compound, mean±SD. In general terms: Microsomes from liver hold many membrane-bound enzymes, among them those of drug oxidation.
Protocol: Each compound (final concentration: 5 μM) was incubated in the presence of rat or human liver microsomes (final concentration: 1 mg protein/mL) and of a NADPH‐regenerating system (final concentrations: 2 mM NADP^+, 10 mM glucose‐6‐phosphate, 0.4 U mL^−1 glucose‐6‐phosphate dehydrogenase, 5 mM MgCl2) in a 10 mM Phosphate Buffered Saline (PBS) solution, pH 7.4, at 37 °C. Compound was added after a 10 min pre‐incubation at 37 °C and. at stated time points, depending on compound kinetics, sample aliquots were withdrawn, metabolic reaction was quenched by acetonitrile addition (1 : 2), and after a centrifugation step (9000 g, 10 min, 4 °C) the supernatant was analyzed by HPLC‐UV‐VIS.
Apparent half‐lives (t1/2 in min) for the metabolic clearance of compounds were calculated from the pseudo first‐order rate constants (k) obtained by linear regression of the log chromatographic peak area versus time plots and are reported as means of three experiments±standard deviation. Intrinsic clearance (CLi) values of the compounds were calculated using the following equation: CLi (μL×min^−1×mg protein^−1)=k×V where V (μL×mg protein^−1)=incubation volume/mg protein added.
Pooled rat and human liver microsomes (20 mg/mL) were supplied by BD Biosciences (BD Biosciences, Woburn, MA, USA). Acetonitrile and methanol were HPLC grade and were supplied by Sigma‐Aldrich (Sigma‐Aldrich srl, Milan, Italy). Water was freshly bidistilled before use. All other reagents were purchased in the highest purity available.
PeakSimple 2.83 software was employed for data acquisition and HPLC peak integration. HPLC columns were a RP‐C18 Supelco Discovery (Supelco, Bellefonte, PA, USA), 5 μm, 150×4.6 mm i.d. for all compounds except 13, and a Phenomenex Gemini, 5 μm, 150×4.6 mm i.d. for compound 13 (Phenomenex). Elution conditions were optimized for each compound at a flow rate of 1 mL min^−1 employing mobile phases consisting of water and acetonitrile at different percentages, while UV detection was set at λ = 254 nm. For compound 13, the mobile phase consisted of a 10 mM ammonium acetate buffer pH 7.0 and methanol and the UV detection was set at λ = 281 nm.
Data set [2] can be described thus: Thermodynamic solubility, shake flask method. The settings on record: thermodynamic from solid, room temperature overnight, mean±SD, triplicate. It counts as physicochemical.
The nature of data set [3]: Experimental lipophilicity, shake-flask n-octanol/water. The class given is physicochemical. The settings on record: n-octanol/water (MOPS buffer); n-octanol/50 mM MOPS buffer pH 7.4, 25±1 °C; mean±SD of three; read-out: Log D oct,7.4.
Data set [4] can be described thus: Metabolic stability in rat liver microsomes. It counts as in vitro ADME. The settings on record: rat liver microsomes 1 mg protein/mL, 5 μM compound, mean±SD.
A further data set addresses T1, human MT2 receptors (Homo sapiens, UniProt P49286).
T1 sequence (P49286 1-362): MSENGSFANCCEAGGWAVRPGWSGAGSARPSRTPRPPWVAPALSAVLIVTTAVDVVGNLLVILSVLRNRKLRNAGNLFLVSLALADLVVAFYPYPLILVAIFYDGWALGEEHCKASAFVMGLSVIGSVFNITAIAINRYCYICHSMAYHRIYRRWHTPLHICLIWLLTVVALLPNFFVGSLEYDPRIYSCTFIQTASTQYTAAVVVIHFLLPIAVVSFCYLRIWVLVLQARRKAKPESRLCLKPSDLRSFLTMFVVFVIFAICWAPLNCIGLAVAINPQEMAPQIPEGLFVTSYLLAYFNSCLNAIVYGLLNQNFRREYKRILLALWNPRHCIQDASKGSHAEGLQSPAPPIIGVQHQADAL
The experiment in a line: Radioligand binding, 2-[125I]iodomelatonin competition at MT2. The settings on record: cloned human MT2 in CHO cells; from IC50 by Cheng-Prusoff; mean±SD of three determinations; read-out: MT2 K i.

≈ marks a conversion by molar mass, not a printed value. Where two headings read alike, the source gives them in different places.

Chain of human MT1 receptors (P48039 whole entry): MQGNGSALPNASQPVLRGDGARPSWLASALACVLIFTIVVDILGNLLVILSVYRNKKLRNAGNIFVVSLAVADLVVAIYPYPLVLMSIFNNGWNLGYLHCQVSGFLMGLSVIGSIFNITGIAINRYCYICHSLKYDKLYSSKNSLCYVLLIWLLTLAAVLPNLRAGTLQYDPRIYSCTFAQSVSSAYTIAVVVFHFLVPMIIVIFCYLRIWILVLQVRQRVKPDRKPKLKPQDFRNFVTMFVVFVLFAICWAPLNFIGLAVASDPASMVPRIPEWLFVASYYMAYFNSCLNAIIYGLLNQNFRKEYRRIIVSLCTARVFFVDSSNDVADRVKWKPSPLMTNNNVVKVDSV
Protocol for human MT1 receptors: (§1) The in vitro pharmacology experiments were conducted at Cerep (Celle‐Lévescault, France) following radioligand binding and cellular functional assays developed elsewhere.[60, 61, 62]
(§2) After incubation, the % of radioligand binding inhibition was determined via a scintillation counting method. The radioligand binding experiments were performed in triplicate. IC50 values were determined by nonlinear regression analysis of the competition curves using Hill equation curve fitting. The pK i values were calculated from the IC50 values in accordance with the Cheng‐Prusoff equation.[28]
Protocol for human MT2 receptors: as §1, §2

As for `COc1cccc(N(CCNC(C)=O)c2ccsc2)c1` [Compound 11, N ‐{2‐[(3‐Methoxyphenyl)(thiophen‐3‐yl)amino]ethyl}acetamide], the melting point (in general, the temperature, or range, at which the solid turns liquid) fell in the range of 76 to 77 °C. On human MT1 receptors, the Ki was 0.7 ± 0.1 nM. In addition, the “CLi Human LM (intrinsic clearance)” value in data set [1] (37 °C) amounted to 17.5±2.4 μL min^−1 mg prot^−1. In addition, the half-life at 5 μM in data set [1] (NADPH-regenerating system, pH 7.4, 37 °C, read-out: t 1/2 Human LM) amounted to 40.1 ± 5.3 min. Besides, the solubility (as a rule, the concentration that dissolves in the medium under given conditions) in data set [2] (buffer pH 1.0, simulated gastric fluid, pH 1.0 buffer, read-out: Solubility pH 1.0) is 162 ± 4.4 µg/mL (≈ 556 µM). In addition, the solubility in data set [2] (buffer pH 7.4, aqueous buffer, pH 7.4 buffer, read-out: Solubility pH 7.4) was 92.5 ± 3.5 µg/mL (≈ 319 µM). Further, the logD in data set [3] came to 2.74 ± 0.01. The “CLi Rat LM (intrinsic clearance)” value in data set [4] (37 °C) is 175.4±22.3 μL min^−1 mg prot^−1. For the same compound, in data set [4] (NADPH-regenerating system, pH 7.4, 37 °C, read-out: t 1/2 Rat LM), the half-life at 5 μM was 4 ± 0.5 min. Further, the Ki on human MT2 receptors stood at 0.07 ± 0.02 nM.
